Experimental data reported in ChEMBL document CHEMBL4402545, “Subtype Selective γ-Aminobutyric Acid Type A Receptor (GABAAR) Modulators Acting at the Benzodiazepine Binding Site: An Update” (J Med Chem, 2020).

What was measured:
[1] = biological target: T1, Gamma-aminobutyric acid receptor subunit alpha-2 (Homo sapiens) (UniProt P47869); assay: Binding affinity to GABA-A alpha2 (unknown origin) assessed as increase in induced current relative to control
T1 sequence (whole entry): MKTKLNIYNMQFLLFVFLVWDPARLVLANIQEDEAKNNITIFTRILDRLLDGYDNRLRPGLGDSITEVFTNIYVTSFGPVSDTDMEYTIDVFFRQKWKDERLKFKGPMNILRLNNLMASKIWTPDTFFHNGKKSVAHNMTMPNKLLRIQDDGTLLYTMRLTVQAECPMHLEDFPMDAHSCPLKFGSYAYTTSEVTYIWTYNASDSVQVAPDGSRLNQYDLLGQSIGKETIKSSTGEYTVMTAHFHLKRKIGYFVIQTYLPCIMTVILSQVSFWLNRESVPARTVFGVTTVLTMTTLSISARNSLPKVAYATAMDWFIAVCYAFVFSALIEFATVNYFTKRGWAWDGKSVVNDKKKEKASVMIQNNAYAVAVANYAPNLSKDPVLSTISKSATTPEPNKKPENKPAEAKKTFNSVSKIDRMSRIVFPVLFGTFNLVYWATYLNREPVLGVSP

[2] = biological target: T2, Gamma-aminobutyric acid receptor subunit alpha-3 (Homo sapiens) (UniProt P34903); assay: Binding affinity to GABA-A alpha3 (unknown origin) assessed as increase in induced current relative to control
T2 sequence (whole entry): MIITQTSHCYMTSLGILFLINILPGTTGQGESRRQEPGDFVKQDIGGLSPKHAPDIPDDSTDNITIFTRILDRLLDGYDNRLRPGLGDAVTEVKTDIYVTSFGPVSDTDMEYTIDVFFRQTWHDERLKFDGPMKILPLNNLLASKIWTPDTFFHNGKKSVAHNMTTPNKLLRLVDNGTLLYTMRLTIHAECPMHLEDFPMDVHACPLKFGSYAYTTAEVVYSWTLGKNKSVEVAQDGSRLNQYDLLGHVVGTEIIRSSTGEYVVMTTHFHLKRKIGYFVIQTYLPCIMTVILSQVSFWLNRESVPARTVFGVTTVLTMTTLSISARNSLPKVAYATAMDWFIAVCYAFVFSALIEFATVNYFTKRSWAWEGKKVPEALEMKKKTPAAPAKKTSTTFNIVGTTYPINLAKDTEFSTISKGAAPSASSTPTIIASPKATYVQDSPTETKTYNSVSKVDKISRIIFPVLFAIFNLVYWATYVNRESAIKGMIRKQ

[3] = biological target: T3, Gamma-aminobutyric acid receptor subunit alpha-5 (Homo sapiens) (UniProt P31644); assay: Binding affinity to GABA-A alpha5 (unknown origin) assessed as increase in induced current relative to control
T3 sequence (whole entry): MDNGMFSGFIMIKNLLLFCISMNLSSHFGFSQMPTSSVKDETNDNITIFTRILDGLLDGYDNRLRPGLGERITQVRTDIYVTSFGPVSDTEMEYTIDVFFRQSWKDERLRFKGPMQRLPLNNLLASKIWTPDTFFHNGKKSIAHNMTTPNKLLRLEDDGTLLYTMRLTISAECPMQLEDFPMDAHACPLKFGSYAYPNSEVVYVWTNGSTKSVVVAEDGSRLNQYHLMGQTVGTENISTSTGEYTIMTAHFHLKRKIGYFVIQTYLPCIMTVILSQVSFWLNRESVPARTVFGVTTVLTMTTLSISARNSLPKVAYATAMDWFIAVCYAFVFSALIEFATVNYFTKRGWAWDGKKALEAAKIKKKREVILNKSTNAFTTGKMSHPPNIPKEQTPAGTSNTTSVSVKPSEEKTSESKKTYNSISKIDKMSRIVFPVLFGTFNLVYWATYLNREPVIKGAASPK

[4] = biological target: T4, Gamma-aminobutyric acid receptor subunit alpha-1 (Homo sapiens) (UniProt P14867); assay: Binding affinity to GABA-A alpha1 (unknown origin) assessed as increase in induced current relative to control
T4 sequence (whole entry): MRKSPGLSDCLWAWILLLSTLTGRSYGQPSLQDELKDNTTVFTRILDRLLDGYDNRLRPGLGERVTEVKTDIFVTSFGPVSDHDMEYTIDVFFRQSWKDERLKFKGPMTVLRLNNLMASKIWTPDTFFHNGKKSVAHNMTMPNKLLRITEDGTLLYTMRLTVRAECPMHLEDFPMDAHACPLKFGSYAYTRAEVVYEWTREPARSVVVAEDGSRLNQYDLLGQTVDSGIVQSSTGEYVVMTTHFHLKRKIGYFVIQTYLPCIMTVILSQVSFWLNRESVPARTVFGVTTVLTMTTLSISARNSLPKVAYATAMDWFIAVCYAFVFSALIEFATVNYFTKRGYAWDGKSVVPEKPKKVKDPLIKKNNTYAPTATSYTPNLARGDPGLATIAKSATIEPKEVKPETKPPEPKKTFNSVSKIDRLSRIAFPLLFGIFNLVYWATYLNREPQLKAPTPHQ

[5] = biological target: T5, Gamma-aminobutyric acid receptor subunit alpha-2 (Homo sapiens, UniProt P47869); assay: Binding affinity to GABA-A alpha2 (unknown origin)
T5 sequence (P47869 whole entry): T1 sequence (whole entry)

[6] = biological target: T6, Gamma-aminobutyric acid receptor subunit alpha-3 (Homo sapiens, UniProt P34903); assay: Binding affinity to GABA-A alpha3 (unknown origin)
T6 sequence (P34903 whole entry): T2 sequence (whole entry)

[7] = biological target: T7, Gamma-aminobutyric acid receptor subunit alpha-1 (Homo sapiens, UniProt P14867); assay: Binding affinity to GABA-A alpha1 (unknown origin)
T7 sequence (P14867 whole entry): T4 sequence (whole entry)

[8] = biological target: T3, Gamma-aminobutyric acid receptor subunit alpha-5 (Homo sapiens); assay: Binding affinity to GABA-A alpha5 (unknown origin) assessed as reduction in DMCM induced current relative to control
[9] = biological target: T4, Gamma-aminobutyric acid receptor subunit alpha-1 (Homo sapiens); assay: Negative allosteric modulation of GABA-A alpha1 (unknown origin) assessed as reduction in DMCM induced current relative to control
[10] = biological target: T8, Gamma-aminobutyric acid receptor subunit alpha-5 (Homo sapiens, UniProt P31644); assay: Binding affinity to GABA-A alpha5 (unknown origin)
T8 sequence (P31644 whole entry): T3 sequence (whole entry)

[11] = biological target: T1, Gamma-aminobutyric acid receptor subunit alpha-2 (Homo sapiens); assay: Binding affinity to GABA-A alpha2 (unknown origin) assessed as reduction in DMCM induced current relative to control
[12] = biological target: T2, Gamma-aminobutyric acid receptor subunit alpha-3 (Homo sapiens); assay: Binding affinity to GABA-A alpha3 (unknown origin) assessed as reduction in DMCM induced current relative to control
[13] = biological target: GABA-A receptor; alpha-5/beta-3/gamma-2 (Homo sapiens) (UniProt P18507+P28472+P31644); assay: Negative allosteric modulation of GABAA alpha5beta3gamma2 (unknown origin) expressed in Xenopus laevis oocytes assessed as inhibition of GABA-induced current response at -60 mV holding potential by two electrode voltage clamp method relative to control; format: cell-based; parameters: scale not given: the % may be the effect or the level left
[14] = species: Homo sapiens; assay: Selectivity ratio of Ki for binding affinity to GABAA alpha3beta3gamma2 (unknown origin) to Ki for binding affinity to GABAA alpha5beta3gamma2 (unknown origin)
[15] = species: Homo sapiens; assay: Selectivity ratio of Ki for binding affinity to GABAA alpha2beta3gamma2 (unknown origin) to Ki for binding affinity to GABAA alpha5beta3gamma2 (unknown origin)
[16] = species: Homo sapiens; assay: Selectivity ratio of Ki for binding affinity to GABAA alpha1beta3gamma2 (unknown origin) to Ki for binding affinity to GABAA alpha5beta3gamma2 (unknown origin)

Structure (SMILES) | fold change (FC) [1] | fold change (FC) [2] | fold change (FC) [3] | fold change (FC) [4] | Ki [5] [nM] | Ki [6] [nM] | Ki [7] [nM] | Ki [10] [nM] | further results
C#Cc1ccc2c(c1)C(c1ccccn1)=NCc1c(C(=O)OCC)ncn1-2 | 0.52 | 0.36 | 0.23 | 0.27 | – | – | – | – | –
c1ccc(-c2nnc3c4c(c(OCc5ccccn5)nn23)C2CCC4CC2)cc1 | – | – | – | – | 26 | 12 | 71 | – | –
FC(F)c1ncn2c1Cn1ncnc1-c1cc(Br)ccc1-2 | – | – | – | – | 185 | 80 | 174 | 4.6 | Efficacy [8]: -35%; Efficacy [9]: -3%; Efficacy [11]: -4%; Efficacy [12]: 2%
C#Cc1ccc2c(c1)C(c1ccccc1F)=N[C@H](C)c1c(C(=O)OCC)ncn1-2 | 0.19 | 0.18 | 1.19 | 0.25 | – | – | – | – | –
COCc1ncn2c1CN(C)C(=O)c1cc(Cl)ccc1-2 | – | – | – | – | 180 | 328 | 362 | 6 | Activity [13]: 17%; Efficacy [8]: -20%; Efficacy [9]: 20%; Ratio Ki [14]: 30 to 60; Ratio Ki [15]: 30 to 60; Efficacy [11]: 15%; Ratio Ki [16]: 30 to 60; Efficacy [12]: 45%
Cc1onc(-c2ccc(F)cc2)c1COc1ccc(C(=O)N2CCS(=O)(=O)CC2)cn1 [BASMISANIL] | – | – | – | – | 502 | 489 | 985 | 4.7 | Efficacy [8]: -39%; Efficacy [9]: -4%; Efficacy [11]: -6%; Efficacy [12]: -2%
CCCNC(=O)c1nnc2c(-c3cc(OC)ccc3OC)cccc2c1N [AZD6280] | – | – | – | – | – | 3.1 | 0.5 | 1680 | –
CC(C)(O)c1ccc2c(c1)ncn2-c1cccc(-c2cc(C#N)ccc2Cl)n1 | 0.27 | 0.47 | 0.05 | -0.1 | – | – | – | – | –
C#Cc1ccc2c(c1)C(c1ccccn1)=NCc1c(C(=O)OC)ncn1-2 | – | – | – | – | 1000 | 1000 | – | – | Activity [1]: 140%; Activity [2]: 129%; Activity [3]: 11%; Activity [4]: 25%
C#Cc1ccc2c(c1)C(c1ccccc1F)=N[C@H](C)c1c(C(=O)N(C)C)ncn1-2 | – | – | 1.46 | 0.65 | 30000 | 63000 | 55000 | 5000 | Ratio Ki [14]: 6 to 15; Ratio Ki [15]: 6 to 15; Ratio Ki [16]: 6 to 15
C#Cc1ccc2c(c1)C(c1ccccc1F)=N[C@H](C)c1c(C(=O)NC3CC3)ncn1-2 | – | – | 1.23 | 1.22 | 789 | 480 | 542 | 79 | Ratio Ki [14]: 6 to 15; Ratio Ki [15]: 6 to 15; Ratio Ki [16]: 6 to 15
C#Cc1ccc2c(c1)C(c1ccccc1F)=N[C@H](C)c1c(C(=O)NC)ncn1-2 | 0.5 | 0.2 | 2.48 | 0.11 | 360 | 660 | 850 | 55 | –
Clc1ccc2c(c1)-c1ncnn1Cc1c(Cl)ncn1-2 | – | – | – | – | 24 | 14 | 15 | 2 | Efficacy [8]: -40%; Efficacy [9]: -3%; Efficacy [11]: -9%; Efficacy [12]: -11%
CCOC(=O)c1ncn2c1[C@@H]1CCCN1C(=O)c1cc(OC)ccc1-2 | – | – | – | – | 17 to 360 | 17 to 360 | 17 to 360 | – | Ratio Ki [14]: 50 to 100; Ratio Ki [15]: 50 to 100; Ratio Ki [16]: 50 to 100
C#Cc1ccc2c(c1)C(c1ccccn1)=NCc1c(-c3cnco3)ncn1-2 | 0.66 | 0.77 | – | 0.35 | – | – | – | – | –
C#Cc1ccc2c(c1)C(c1ccccc1F)=N[C@@H](C)c1c(C(=O)OCC)ncn1-2 | 0.57 | 0.31 | 1.19 | 0.3 | – | – | – | – | –
C#Cc1ccc2c(c1)C(=O)N(C)Cc1c(C(=O)OCC)ncn1-2 | – | – | – | – | – | – | – | – | Activity [13]: 36%
